Assay [1] deals with primary neural stem cells (NSCs). Nature of the assay: Differentiation of primary neural stem cells, βIII-tubulin fluorescence and Neurite Outgrowth Assay. In kind it is cell-based, SD rats. The following applies: 100 µg/mL; for neurite outgrowth (total neurite length, maximum neurite length, neurite terminals, neurite initiation points) / Number of neurite terminals / Total neurite length / mean fluorescence intensity of the neuronal marker protein βIII-tubulin / Longest neurite length / Neurite initiation points (branches) / Average fluorescence intensity: 4 days; for neurite outgrowth (total neurite length, maximum neurite length, neurite terminals, neurite initiation points): Neurite Outgrowth Assay; for neurite outgrowth (total neurite length, maximum neurite length, neurite terminals, neurite initiation points) / mean fluorescence intensity of the neuronal marker protein βIII-tubulin: in words; for Number of neurite terminals / Total neurite length / Longest neurite length / Neurite initiation points (branches) / Average fluorescence intensity: significance vs blank control group; for mean fluorescence intensity of the neuronal marker protein βIII-tubulin: vs blank control group; for differentiation of NSCs into neuronal cells: conclusion based on the results of the two analytical methods; for Average fluorescence intensity: βIII-tubulin. As to the method:
This part of the experiment requires feeding male and female rats in advance, then extracting hippocampal neural stem cells from newborn SD rats within 24 h of birth, culturing them to P3 for identification, and then using them for experiments. • (1) Extraction and culture of primary neural stem cells (NSCs) • (2) NSCs that have been passaged to P3 and have good viability were seeded in differentiation medium (2% FBS+DMEM/F12 1:1 medium) in 48-well plates with a cell concentration of 5×10^4 cells/mL per well. After overnight culture for cell adherence, the cells were treated with drugs; • (3) Drug treatment was applied. The final concentration of the polypeptide of the invention was 100 µg/mL. Meanwhile, nerve growth factor (NGF, 50 ng/mL) was set as the positive control, and the cells were cultured in the incubator for another 4 days; • (4) Immunofluorescence staining (primary antibody βIII-tubulin) was performed after 4 days of treatment. The average fluorescence intensity of βIII-tubulin was analyzed and the Neurite Outgrowth Assay was performed using a high-content cell imaging analysis system.

Assay [2] deals with neural stem cell line C17.2. The experiment in a line: Proliferation of neural stem cell line C17.2, BrdU, high-content imaging. In kind it is cell-based. The note with it: 100 µg/mL, 48 h; for Proliferation-promoting results: percentage of BrdU-positive cells, significance vs blank control group; for number of BrdU positive cells: vs blank control group, in words. The procedure: • (1) C17.2 cells were seeded in 96-well plates at a concentration of 1500 cells/100 µL/well. After overnight culture for cell adherence, the cells were treated with drugs; • (2) Drug treatment was applied. The final concentration of the polypeptide of the invention was 100 µg/mL. Meanwhile, butylphthalide (NBP, 5 µM) was set as the positive control. The cells were cultured in the incubator for another 48 h; • (3) BrdU was added at 44 h of treatment to a final concentration of 10 µM. Immunofluorescence staining was performed 4 h later, and the percentage of BrdU-positive cells was statistically analyzed using a high-content cell imaging analysis system.

Assay [3] has as its system Brain microvascular endothelial cells (BMECs) and brain microvascular smooth muscle cells (BMVSMCs). Nature of the assay: In vitro angiogenesis assay, BMEC/BMVSMC co-culture on matrigel. The format is cell-based, mouse. The note with it: 0.1 mg/L, 48 h. As to the method: First, mouse brain microvascular pellets were obtained by differential centrifugation. Brain microvascular endothelial cells (BMECs) and brain microvascular smooth muscle cells (BMVSMCs) were isolated by digestion with collagenase II, respectively, and cultured in a cell incubator with 5% CO2 at 37°C . Cells at passages 3-6 in good growth condition and logarithmic growth phase were selected for the in vitro angiogenesis assay.
One night before the experiment, the high-concentration matrigel was transferred from a -20°C or -80°C refrigerator to a 4°C refrigerator and allowed to thaw slowly overnight in the 4°C refrigerator. Pipette tips required for the formal experiment were sterilized in advance and pre-cooled in a 4°C refrigerator for subsequent use.
On the day of the experiment, the matrigel was added to a 96-well plate 1 h in advance and placed in a 37°C cell incubator until it solidified. Subsequently, the cells were washed 2 times with 2 mL of PBS buffer, followed by digestion with 0.25% trypsin to obtain EC and VSMC pellets, respectively, and cell counting was performed. A uniform cell suspension containing 5×10^3 BMVSMCs and 1×10^3 BMECs per well was then seeded into the 96-well plate pre-coated with the matrigel, and cultured in a 37°C, 5% CO2 cell incubator for 3 days.
During the culture period, tube formation was observed daily. The medium was changed on day 4, followed by treatment with the polypeptide of the invention at 0.1 mg/L or VEGFA at 10/15/20 ng/L for 48 h, respectively.
On day 5, the cell nuclei and live cells were labeled with Hoechst 33342 and Calcein AM, respectively. High-content brightfield and fluorescence imaging were then performed using a high-content screening system. Finally, angiogenesis in each treatment group was analyzed using the Angiogenesis Analyzer plugin for ImageJ, and statistical analysis was carried out with GraphPad Prism 10.

Setting [4] is: significance vs blank control group.

The values below come from patent EP4806904A1, “POLYPEPTIDE AND USE THEREOF” (Sichuan Gooddoctor Panxi Pharmaceutical Co. Ltd, priority 2023, dated 2026).

Where a SMILES comes first, the peptide text is derived from it. [ ]: non-standard residue; d: D form.

Take `CC(C)C[C@H](NC(=O)[C@@H](NC(=O)CNC(=O)[C@@H]1CCCN1)[C@@H](C)O)C(=O)O` [Compound 28, H-Pro-Gly-Thr-Leu-OH] (H-PGTL-OH): in assay [1], the “neurite outgrowth (total neurite length, maximum neurite length, neurite terminals, neurite initiation points)” value (“neurite outgrowth” below) is “tendency to promote neurite outgrowth”; the “Number of neurite terminals” value was “* (*p < 0.05)”; the Total neurite length result is on record as “** (**p < 0.01)”. Further, in assay [2], the Proliferation-promoting results was “* (*p < 0.05)” and the “number of BrdU positive cells” value is given as “significant increase”.

`CC(C)C[C@H](N)C(=O)N1CCC[C@H]1C(=O)N[C@@H](C)C(=O)N1CCC[C@H]1C(=O)O` [Compound 31, H-Leu-Pro-Ala-Pro-OH] (H-LPAP-OH): the “mean fluorescence intensity of the neuronal marker protein βIII-tubulin” value (“mean fluorescence intensity” for short) in assay [1] is listed as “tendency to enhance”. For the same compound, the Branch length result in assay [3] (setting [4]) was “** (**p < 0.01)”.

Take `CC(C)C[C@H](NC(=O)[C@H](C)N)C(=O)N1CCC[C@H]1C(=O)N[C@@H](C)C(=O)O` [Compound 35, H-Ala-Leu-Pro-Ala-OH] (H-ALPA-OH): in assay [1], the “neurite outgrowth” value was “promote neurite outgrowth”; the Longest neurite length entry is given as “** (**p < 0.01)”; the “Neurite initiation points (branches)” value is recorded as “* (*p < 0.05)”; the “Number of neurite terminals” value is listed as “* (*p < 0.05)”. Also, in assay [1], the Total neurite length result is “* (*p < 0.05)”, the “mean fluorescence intensity” value is given as “significant increase”, the “differentiation of NSCs into neuronal cells” value is listed as “promote the differentiation of NSCs into neuronal cells with stable effects” and the Average fluorescence intensity result is reported as “* (*p < 0.05)”. Moreover, in assay [3] (setting [4]), the Cell count entry is reported as “** (**p < 0.01)”. For the same compound, the cell proliferation entry in assay [3] (vs normal group, in words) was “only promoted cell proliferation”.

`C[C@H](N)C(=O)N1CCC[C@H]1C(=O)NCC(=O)N[C@H](C(=O)O)[C@@H](C)O` [Compound 37, H-Ala-Pro-Gly-Thr-OH] (H-APGT-OH): in assay [2], the Proliferation-promoting results is reported as “* (*p < 0.05)” and the “number of BrdU positive cells” value was “significant increase”.

`CC(C)C[C@H](NC(=O)[C@@H](NC(=O)CN)[C@@H](C)O)C(=O)O` [Compound 38, H-Gly-Thr-Leu-OH] (H-Gly-Thr-Leu-OH): in assay [1], the “mean fluorescence intensity” value is given as “tendency to enhance”. In assay [3] (setting [4]), the Branch length result is given as “** (**p < 0.01)”, the Cell count result is “* (*p < 0.05)” and the Number of intersections result is “** (**p < 0.01)”. Also, the angiogenesis-promoting effects result in assay [3] (vs normal group, in words) is given as “exhibited angiogenesis-promoting effects”.

For the compound `CC(=O)N[C@@H](C)C(=O)N[C@@H](CC(C)C)C(=O)N1CCC[C@H]1C(=O)N[C@@H](C)C(=O)N1CCC[C@@H]1C(=O)NCC(=O)N[C@H](C(=O)N[C@@H](CC(C)C)C(N)=O)[C@@H](C)O` [Compound 41, Ac-Ala-Leu-Pro-Ala-D-Pro-Gly-Thr-Leu-NH2] (Ac-ALPA[dP]GTL-NH2), in assay [1], the “neurite outgrowth” value is “tendency to promote neurite outgrowth”; the “Neurite initiation points (branches)” value is given as “* (*p < 0.05)”; the Total neurite length result is “* (*p < 0.05)”. Besides, in assay [3] (setting [4]), the Branch length entry is reported as “** (**p < 0.01)”, the Cell count entry was “*** (***p < 0.001)” and the Number of intersections entry was “** (**p < 0.01)”. Further, in assay [3] (vs normal group, in words), the angiogenesis-promoting effects entry was “exhibited angiogenesis-promoting effects”.

In the case of `CC(=O)N[C@@H](C)C(=O)N[C@@H](CC(C)C)C(=O)N1CCC[C@H]1C(=O)N[C@H](C)C(=O)N1CCC[C@H]1C(=O)NCC(=O)N[C@H](C(=O)N[C@@H](CC(C)C)C(N)=O)[C@@H](C)O` [Compound 42, Ac-Ala-Leu-Pro-D-Ala-Pro-Gly-Thr-Leu-NH2] (Ac-ALP[dA]PGTL-NH2), in assay [1], the “mean fluorescence intensity” value is listed as “significant increase” and the Average fluorescence intensity result is recorded as “* (*p < 0.05)”. Moreover, in assay [3] (setting [4]), the Branch length result is recorded as “* (*p < 0.05)” and the Cell count result is “* (*p < 0.05)”. Also, in assay [3] (vs normal group, in words), the Branch length result is “promoting effects” and the number of junctions result is given as “no significant effects”.

With “H-AAPAPGTL-OH [Compound 16, H-Ala-Ala-Pro-Ala-Pro-Gly-Thr-Leu-OH]”, in assay [1], the “mean fluorescence intensity” value is on record as “significant increase” and the Average fluorescence intensity result is given as “* (*p < 0.05)”. In addition, the Proliferation-promoting results in assay [2] is reported as “* (*p < 0.05)”.

On to “H-ALPAP-OH [Compound 30, H-Ala-Leu-Pro-Ala-Pro-OH]”, for which, in assay [1], the “neurite outgrowth” value is on record as “tendency to promote neurite outgrowth”; the Longest neurite length result is reported as “* (*p < 0.05)”; the “mean fluorescence intensity” value is given as “significant increase”; the Average fluorescence intensity entry is “*** (***p < 0.001)”. In assay [3] (setting [4]), the Branch length result is “* (*p < 0.05)” and the Cell count entry was “** (**p < 0.01)”.

Take “H-APGTL-OH [Compound 34, H-Ala-Pro-Gly-Thr-Leu-OH]”: in assay [1], the “neurite outgrowth” value was “promote neurite outgrowth”; the Longest neurite length entry is recorded as “* (*p < 0.05)”; the “Neurite initiation points (branches)” value is given as “* (*p < 0.05)”; the “Number of neurite terminals” value is reported as “** (**p < 0.01)”. Further, in assay [1], the Total neurite length result is given as “* (*p < 0.05)”, the “mean fluorescence intensity” value is on record as “significant increase”, the “differentiation of NSCs into neuronal cells” value was “promote the differentiation of NSCs into neuronal cells with stable effects” and the Average fluorescence intensity entry was “* (*p < 0.05)”. Moreover, in assay [3] (setting [4]), the Branch length result is “** (**p < 0.01)”, the Cell count result is “** (**p < 0.01)” and the Number of intersections entry is given as “** (**p < 0.01)”. The angiogenesis-promoting effects result in assay [3] (vs normal group, in words) is on record as “exhibited angiogenesis-promoting effects”.

In the case of “H-PAPGTL-OH [Compound 26, H-Pro-Ala-Pro-Gly-Thr-Leu-OH]”, in assay [1], the “mean fluorescence intensity” value is “tendency to enhance”. In addition, in assay [3] (setting [4]), the Branch length entry was “* (*p < 0.05)” and the Number of intersections entry is on record as “* (*p < 0.05)”. Moreover, in assay [3] (vs normal group, in words), the angiogenesis-promoting effects entry was “exhibited angiogenesis-promoting effects”.

With “H-QLPAPGTL-OH [Compound 22, H-Gln-Leu-Pro-Ala-Pro-Gly-Thr-Leu-OH]”, in assay [1], the “neurite outgrowth” value is “promote neurite outgrowth”; the Longest neurite length entry was “* (*p < 0.05)”; the “Neurite initiation points (branches)” value is given as “* (*p < 0.05)”; the “Number of neurite terminals” value is listed as “* (*p < 0.05)”. Besides, in assay [1], the Total neurite length entry is “* (*p < 0.05)”. In assay [3] (setting [4]), the Branch length result is “* (*p < 0.05)”. Moreover, in assay [3] (vs normal group, in words), the Branch length entry was “promoting effects” and the number of junctions entry is “no significant effects”.

For the compound “H-QLPAPGTLQHF-OH [Compound 25, H-Gln-Leu-Pro-Ala-Pro-Gly-Thr-Leu-Gln-His-Phe-OH]”, in assay [1], the “mean fluorescence intensity” value is “significant increase” and the Average fluorescence intensity entry is on record as “* (*p < 0.05)”. Besides, in assay [3] (setting [4]), the Cell count result is “** (**p < 0.01)”. In addition, the cell proliferation result in assay [3] (vs normal group, in words) is recorded as “only promoted cell proliferation”.
